# Entries after “also recorded” stand apart in the source; their conditions may differ.
# What was measured:
# [1] = test system: tinnitus; conditions: Westerberg et al., 1996 (baclofen); Piccirillo et al., 2007 (gabapentin); cited from earlier work
# [2] = test system: KCC2 expression in cochlear tissue; experiment: Real-time PCR for KCC2 expression in cochlear tissue after noise or sham exposure and local treatment; format: in vivo, rat
# Experimental: 20 adult female Wistar rats were anaesthetized as described above for the previous experiments. First, auditory brainstem response (ABR) measurements were performed. As in Experiment 2, they were then exposed in a sound attenuation booth for 1.5 hours to a continuous 10 kHz tone at an intensity of 120 dB SPL (Group A; n×10) or sham exposed in the same setting (Group B; n=10). Animals were treated bilaterally right after noise trauma with either artificial perilymph (AP) or bumetanide (Sigma B3023, Lot 027Ko988). AP was prepared freshly in accordance with Guitton et al., 2003 (140 mM NaCl, 4 mM KCl, 2 mM CaCl2, 2m M MgCl2, 10 mM glucose, 10 mM HePES). Bumetanide (300 μM) was prepared as follows: 50 mg of bumetanide powder was diluted in 6.87 ml AP. This 20 mM stock solution was diluted 1:66 in AP (15.15 μL stock solution and 984.85 μL AP). 5 animals of Group A and 5 animals of Group B received AP (total 10 animals) and 5 animals of Group A and 5 animals of Group B received bumetanide total (10 animals). For the local treatment administration, the fur was removed behind the ears and the bulla exposed in a retro-auricular approach. A small hole was carefully drilled into the bony bulla just above the round window niche (0.6-1 mm in diameter). The mucosa was opened and the region around the round window carefully dried of fluid. Through the hole, a small gel-foam pellet (Gelita Tampon; Braun, Melsungen, Germany) was inserted into the round window niche, 5-8 μl of bumetanide solution or AP were applied on the gel foam by means of a precision pipette with gel loader tips, thus avoiding air bubbles under the gel. […] The hole in the bulla was then covered from the outside with muscular tissue and the wound was sutured with surgical thread (Vicryl, Johnson & Johnson, Norderstedt, Germany). Postoperatively the animals were kept warm with the body temperature being controlled until wake-up. […] For the real-time PCR reaction 12.5 μl of SYBRGreen (QuantiFast Sybr Green, Qiagen), 1 μl Primer Mix, 7.3 μl ddH2O and 4 μl cDNA were used per well. […]
# [3] = test system: inner hair cell ribbon synapses; experiment: Count of inner hair cell ribbon synapses after noise or sham exposure and local treatment; format: in vivo, rat; conditions: bumetanide 300 μM local at round window, 2 weeks following noise
# Experimental: Ribbon synapses of inner hair cells were counted. Sections were viewed using an Olympus AX70 microscope equipped with epifluorescence illumination (100× objective, NA=1.35) and a motorized z-axis. Images were acquired using a CCD camera and the imaging soft-ware Cell^F (OSIS GmbH, Münster, Germany). For Otoferlin and CtBP2/RIBEYE immunopositive spot counting on cryo-sectioned cochleae were performed through imaging over a distance of 8 μm with the complete coverage of the IHC nucleus and beyond in an image-stack along the z-axis (z-stack). Typically z-stacks consisted of 30 layers with a z-increment of 0.276 µm, for each layer one image per fluorochrome was acquired. Z-stacks were 3-dimensionally deconvoluted using Cell^F's RIDE module with the Nearest Neighbour algorithm (OSIS GmbH, Müster, Germany). 20 adult female Wistar rats were anaesthetized as described above for the previous experiments. First, auditory brainstem response (ABR) measurements were performed. As in Experiment 2, they were then exposed in a sound attenuation booth for 1.5 hours to a continuous 10 kHz tone at an intensity of 120 dB SPL (Group A; n×10) or sham exposed in the same setting (Group B; n=10). Animals were treated bilaterally right after noise trauma with either artificial perilymph (AP) or bumetanide (Sigma B3023, Lot 027Ko988). […] Ribbon synapses of inner hair cells were counted as in Experiment 2.
# [4] = test system: NKCC1 versus KCC2; conditions: Blaesse et al., 2009, cited from earlier work
# [5] = test system: tinnitus; conditions: cited from earlier work
# [6] = test system: behavioural correlate of tinnitus; conditions: chronic tinnitus induced by noise trauma; vigabatrin treatment; cited from earlier work
structure (smiles),measurement,setting,value
NCC(CC(=O)O)c1ccc(Cl)cc1 (stereo not drawn) [baclofen],Effect on tinnitus,[1],no effects at all
CCCCNc1cc(C(=O)O)cc(S(N)(=O)=O)c1Oc1ccccc1 [bumetanide],"KCC2 expression (down-regulation) in noise exposed, bumetanide treated ears versus sham exposed ears","[2]; noise exposed ears (10 kHz, 120 dB SPL, 1.5 h), bumetanide 300 μM local at round window, 15 days following treatment",No such down-regulation
same,"KCC2 expression in noise exposed ears, bumetanide treated versus AP treated","[2]; noise exposed ears, bumetanide 300 μM local at round window, 15 days following treatment, p<0.01",statistically significant difference; also recorded: statistically significantly different
same,"KCC2 expression, bumetanide versus AP treated, sham exposed ears","[2]; sham exposed ears (Group B), bumetanide 300 μM, 5-8 μl on gel foam at round window niche, cochlear tissue 15 days following treatment",no difference
same,Decline of inner hair cell ribbons in noise exposed ears that received bumetanide versus sham exposed,[3]; midbasal and basal cochlear turns,not significant
same,"Inner hair cell ribbon numbers in noise exposed ears, bumetanide versus AP treated","[3]; noise exposed ears, p<0.02",significant difference; also recorded: reduced loss of inner hair cell ribbons
same,Affinity for NKCC1 versus KCC2,"[4]; Payne et al., 2003",much higher affinity for NKCC1 than for KCC2
NS(=O)(=O)c1cc(C(=O)O)c(NCc2ccco2)cc1Cl [furosemide],Induction of tinnitus and hearing loss,[5]; administered at high doses,induce temporary tinnitus and hearing loss
same,Suppression of tinnitus,"[5]; patients, effects only for tinnitus of cochlear rather than central origin","suppress tinnitus, albeit only in a reversible fashion and not in all patients"
same,Potency of blocking NKCC1 versus KCCs,[4],approximately equal potency
NCC1(CC(=O)O)CCCCC1 [gabapentin],Effect on tinnitus,[1],no effects at all
C=CC(N)CCC(=O)O (stereo not drawn) [vigabatrin],Behavioural correlate of tinnitus,[6],reversibly suppressed

# — patent publication US10709682B2, “Treatment of tinnitus through modulation of chloride co-transporter NKCC1 in the auditory system” (OTOLANUM AG, priority 2011, dated 2020)
